From patent US11806393B2, “Flavivirus peptide sequences, epitopes, and methods and uses thereof” (priority 2017, dated 2023) come the findings set out here.

Assay type in all cases: cell-based, mouse
Assay [1] concerns CD44+ CD4+ T cells. Briefly: ICS, ZIKV SD001-infected Ifnar1-/- HLA-DRB1*0101 mice. As to conditions: for % CD4+ CD44+ T cells (ZIKV) IL-2+ / % CD4+ CD44+ T cells (ZIKV) INFγ+ / % CD4+ CD44+ T cells (ZIKV) INFγ+ TNFα+: 7 days after ZIKV SD001, 6 h stimulation; for cytokines produced by ZIKV-primed CD4+ T cells on peptide stimulation: ZIKV SD001, day 7. How it is done: Ifnar1^−/− HLA-DRB1*0101 mice were infected retro-orbitally with 1×10^2 FFU of ZIKV strain SD001 for 7 days. Splenocytes were stimulated in vitro with the indicated ZIKV-derived HLA-DRB1*0101-binding peptides for 6 h, and the frequency of CD44^+ CD4^+ T cells producing IFNγ, TNF, or IFNγ plus TNF (A), IL-2 (B), and IL-17 (C) were detected using the ICS assay. Data represent the mean±s.e.m. of four independent experiments (n=3-5 mice/experiment; total 16 mice). *P<0.05, **P<0.01, ***P<0.001, ****P<0.0001 by two-tailed Mann-Whitney test. Negative and positive refer to cells incubated alone or with PMA/ionomycin, respectively. […]
(§1) For the 30-peptide epitope screen, 5-week-old female or male mice were infected retro-orbitally (r.o.) with either 1×10^2 focus-forming units (FFU) of ZIKV SD001 or 2×10^3 FFU of DENV2 S221 in 200 μl of 10% fetal bovine serum in phosphate-buffered saline (FBS/PBS). Seven days after infection, spleens were removed and single-cell splenocyte suspensions were prepared. A total of 1×10^6 splenocytes was plated in each well of a 96-well U-bottom plate and stimulated with individual peptides (20 μg crude peptide per well) for 6 h. One hour into the incubation, brefeldin A (GolgiPlug, BD Biosciences) was added to the cells. Positive and negative controls were splenocytes stimulated with phorbol-12-myristate-13-acetate (PMA, 0.1 μg/ml) and ionomycin (1 μg/ml) or incubated alone, respectively.
(§2) After incubation of splenocytes with peptides or PMA/ionomycin, cells were harvested, washed, and incubated with Fc Block (CD16/CD32 mAb 2.4G2, BD Biosciences), followed by staining with fixable Live/Dead blue viability stain (Life technologies) and the following antibodies: PerCP-Cy5.5-conjugated anti-CD3 mAb (clone 145-2C11, Tonbo), APC-eFluor780-conjugated anti-CD4 mAb (clone GK1.5, Invitrogen), Brilliant Violet (BV) 785-conjugated anti-CD44 mAb (clone IMT, Biolegend), PE-conjugated anti-CD11a (clone M17/4, Biolegend), BV605-conjugated anti-CD49d (clone 9C10(MFR4.B, Biolegend), PE-conjugated anti-CD25 mAb (clone PC61, Biolegend), PE-conjugated or biotin-conjugated anti-CD185 mAb (CXCR5, clone SPRC15; Invitrogen), BV 605-conjugated anti-[…] mAb (PD1, clone 29F.1A12; Biolegend), and/or BV 421-conjugated streptavidin (#405225, Biolegend). Cells were then fixed and permeabilized using Cytofix/Cytoperm solution (BD Biosciences), followed by staining with FITC-conjugated anti-IFNγ mAb (clone XMG1.2, Tonbo), Alexa Fluor 700- or APC-conjugated anti-TNF mAb (clone MP6-XT22, eBioscience), PE-, BV 421-, or BV 711-conjugated anti-IL-2 mAb (clone JES6-5H4, Biolegend), APC-conjugated anti-IL-4 mAb (clone 11B11, Biolegend), PE-conjugated anti-IL-5 mAb (clone TRFK5, eBioscience), BV510-conjugated anti-IL-17A mAb (clone 17B7, eBioscience), and/or Alexa Fluor 700-conjugated anti-FoxP3 mAb (clone FJK-16S, eBioscience). Data were collected using an LSR Fortessa flow cytometer (BD Biosciences) and analyzed using FlowJo software X 10.0.7 (Tree Star).

Assay [2] concerns CD44+ CD4+ T cells. Briefly: ICS, naive or DENV2-immune Ifnar1-/- HLA-DRB1*0101 mice challenged with ZIKV. As to conditions: day 7 after ZIKV challenge; for CD4+ T cell response to peptide: DENV2-immune mice; for expansion of peptide-reactive CD4+ T cells: naive mice.
Description: Ifnar1−/−HLA-DRB1*0101 mice were primed intraperitoneally with 2×103 FFU of DENV2 S221 for 4 weeks. Naïve mice and DENV2-immune mice were challenged retro-orbitally with 1×10^4 FFU of ZIKV strain SD001 for 3 or 7 days. Splenocytes were stimulated in vitro with the indicated ZIKV-specific and DENV2/ZIKV-cross-reactive epitopes. The frequency of CD44+ CD4+ T cells producing IFNγ, IFNγ plus TNF, or IL-2 were detected using the ICS assay. (E) The combined data for positive peptide responses in (FIGS. 27A-27D). Numbers in parentheses indicate the number of positive peptides. Data represent the mean±s.e.m. of three or four independent experiments, with a total of 9 mice/group for A and C, 14/group for B, and 15/group for D. *P<0.05, **P<0.01, ***P<0.001, ****P<0.0001 by two-tailed Mann-Whitney test. Negative and positive refer to cells incubated alone or with PMA/ionomycin, respectively.
Five-week-old female or male mice were inoculated intraperitoneally (i.p.) with 2×10^3 FFU of DENV2 S221. […] Positive and negative controls were included in all experiments.
as §2

In assay [3] the test system is CD44+ CD4+ T cells. As to the kind of experiment: ICS, DENV2 S221-infected Ifnar1-/- HLA-DRB1*0101 mice. Conditions: for cross-reactive response by DENV2-primed CD4+ T cells / cytokines produced by DENV2-primed CD4+ T cells on peptide stimulation: DENV2 S221, day 7. As for the experimental part:
Ifnar1^−/− HLA-DRB1*0101 mice were infected intraperitoneally with 2×10^3 FFU of DENV2 strain […] for 7 days. Splenocytes were stimulated in vitro with the indicated ZIKV-derived HLA-DRB1*0101-binding peptides for 6 h. The frequency of CD44^+ CD4^+ T cells producing IFNγ, TNF, or IFNγ plus TNF (A) or IL-2 (B) were detected using the ICS assay. Data represent the mean±s.e.m. of three independent experiments (n=3-4 mice/experiment; total 10 mice). *P<0.05, **P<0.01, ***P<0.001, ****P<0.0001 by two-tailed Mann-Whitney test. Negative and positive refer to cells incubated alone or with PMA/ionomycin, respectively.
as §1, §2

Setting [4] is: 7 days after DENV2 S221, 6 h stimulation.

For FGGLKRLPAGLLLGH [C27-41], in the assay with CD44+ CD4+ T cells [1], the “% CD4+ CD44+ T cells (ZIKV) IL-2+” value came to 0.08%; the “% CD4+ CD44+ T cells (ZIKV) INFγ+” value was determined as 0.191%; the “% CD4+ CD44+ T cells (ZIKV) INFγ+ TNFα+” value worked out at 0.1%; the “cytokines produced by ZIKV-primed CD4+ T cells on peptide stimulation” value was “stimulated IFNγ, TNF, and IL-2 production”. In addition, the “identification as Th1 epitope (IFNγ, TNF, IL-2 ICS)” value (“identification as Th1 epitope” below) in the assay with CD44+ CD4+ T cells [1] (ZIKV-primed CD4+ T cells) was “Th1 epitopes”. Further, in the assay on CD44+ CD4+ T cells [2], the “CD4+ T cell response to peptide” value was “increased responses” and the “expansion of peptide-reactive CD4+ T cells” value (from here on “expansion”) is given as “significant expansion”.
For the sequence FLRFTAIKPSLGLIN [C53-67], in the assay with CD44+ CD4+ T cells [1], the “% CD4+ CD44+ T cells (ZIKV) INFγ+” value is 0.265% and the “cytokines produced by ZIKV-primed CD4+ T cells on peptide stimulation” value is on record as “produce only IFNγ”. Further, in the assay on CD44+ CD4+ T cells [1] (ZIKV-primed CD4+ T cells), the “identification as Th1 epitope” value is listed as “Th1 epitopes”. Also, the “CD4+ T cell response to peptide” value with CD44+ CD4+ T cells [2] is given as “increased responses”.
For GAAFGVMEALGTLPG [NS3601-NS4A12], in the assay with CD44+ CD4+ T cells [1], the “% CD4+ CD44+ T cells (ZIKV) INFγ+” value is given as 0.203%, the “% CD4+ CD44+ T cells (ZIKV) INFγ+ TNFα+” value is 0.102% and the “cytokines produced by ZIKV-primed CD4+ T cells on peptide stimulation” value was “stimulated IFNγ plus TNF production”. In the assay on CD44+ CD4+ T cells [1] (ZIKV-primed CD4+ T cells), the “identification as Th1 epitope” value is “Th1 epitopes”. Also, in the assay on CD44+ CD4+ T cells [2], the “CD4+ T cell response to peptide” value is recorded as “increased responses” and the “expansion” value is recorded as “significant expansion”.
Take GAAFKSLFGGMSWFS [E450-464]: in the assay on CD44+ CD4+ T cells [1], the “% CD4+ CD44+ T cells (ZIKV) INFγ+” value came to 0.183%, the “% CD4+ CD44+ T cells (ZIKV) INFγ+ TNFα+” value is reported as 0.078% and the “cytokines produced by ZIKV-primed CD4+ T cells on peptide stimulation” value is reported as “stimulated IFNγ plus TNF production”. Moreover, in the assay on CD44+ CD4+ T cells [1] (ZIKV-primed CD4+ T cells), the “identification as Th1 epitope” value was “Th1 epitopes”. Also, the “CD4+ T cell response to peptide” value with CD44+ CD4+ T cells [2] is on record as “increased responses”.
IKKFKKDLAAMLRII [C81-95]: in the assay with CD44+ CD4+ T cells [1], the “% CD4+ CD44+ T cells (ZIKV) INFγ+” value came out at 0.19% and the “cytokines produced by ZIKV-primed CD4+ T cells on peptide stimulation” value is on record as “produce only IFNγ”. Further, in the assay on CD44+ CD4+ T cells [1] (ZIKV-primed CD4+ T cells), the “identification as Th1 epitope” value is “Th1 epitopes” and the “identification as Th17 epitope (IL-17 ICS)” value was “Th17 epitope”. The “expansion” value in the assay on CD44+ CD4+ T cells [2] is “significant expansion”.
As to LALIAAFKVRPALLV [NS2A66-80], in the assay with CD44+ CD4+ T cells [1], the “% CD4+ CD44+ T cells (ZIKV) INFγ+” value is 0.167%, the “% CD4+ CD44+ T cells (ZIKV) INFγ+ TNFα+” value is recorded as 0.058% and the “cytokines produced by ZIKV-primed CD4+ T cells on peptide stimulation” value is on record as “stimulated IFNγ plus TNF production”. The “identification as Th1 epitope” value in the assay on CD44+ CD4+ T cells [1] (ZIKV-primed CD4+ T cells) is reported as “Th1 epitopes”. In the assay on CD44+ CD4+ T cells [3] (setting [4]), the “% CD4+ CD44+ T cells (DENV) INFγ+” value is on record as 0.39%, the “% CD4+ CD44+ T cells (DENV) INFγ+ TNFα+” value is reported as 0.343% and the “% CD4+ CD44+ T cells (DENV) TNFα+” value was 0.199%. For the same sequence, in the assay on CD44+ CD4+ T cells [3], the “cross-reactive response by DENV2-primed CD4+ T cells” value (from here on “cross-reactive response”) is on record as “elicited cross-reactive responses” and the “cytokines produced by DENV2-primed CD4+ T cells on peptide stimulation” value was “induced IFNγ-plus TNF-producing cells”. In the assay on CD44+ CD4+ T cells [2], the “CD4+ T cell response to peptide” value is “increased responses” and the “expansion” value is given as “significant expansion”.
NLEYRIMLSVHGSQH [E134-148]: in the assay on CD44+ CD4+ T cells [1], the “% CD4+ CD44+ T cells (ZIKV) IL-2+” value is 0.19% and the “cytokines produced by ZIKV-primed CD4+ T cells on peptide stimulation” value was “stimulated only IL-2 production”. Further, in the assay with CD44+ CD4+ T cells [1] (ZIKV-primed CD4+ T cells), the “identification as Th1 epitope” value is listed as “Th1 epitopes”. In the assay on CD44+ CD4+ T cells [3] (setting [4]), the “% CD4+ CD44+ T cells (DENV) IL-2+” value was 0.459%. In the assay with CD44+ CD4+ T cells [3], the “cross-reactive response” value was “elicited cross-reactive responses” and the “cytokines produced by DENV2-primed CD4+ T cells on peptide stimulation” value is reported as “induced only IL-2-producing cells”.
On to WAIYAALTTFITPAV [NS4B40-54], for which, in the assay on CD44+ CD4+ T cells [1], the “% CD4+ CD44+ T cells (ZIKV) INFγ+ TNFα+” value is 0.049% and the “cytokines produced by ZIKV-primed CD4+ T cells on peptide stimulation” value is on record as “stimulated IFNγ plus TNF production”. Also, the “identification as Th1 epitope” value in the assay on CD44+ CD4+ T cells [1] (ZIKV-primed CD4+ T cells) is reported as “Th1 epitopes”. Also, the “% CD4+ CD44+ T cells (DENV) TNFα+” value with CD44+ CD4+ T cells [3] (setting [4]) came to 0.367%. Besides, in the assay with CD44+ CD4+ T cells [3], the “cross-reactive response” value is reported as “elicited cross-reactive responses” and the “cytokines produced by DENV2-primed CD4+ T cells on peptide stimulation” value is recorded as “induced only TNF-producing cells”.
